From PMC3312006 (2011)

Tests used:
[1] = target: T1, histone acetyltransferase p300 (KAT3B) (Homo sapiens, UniProt Q09472); assay: in vitro filter-binding HAT assay with […]acetyl-CoA and HeLa core histones; format: biochemical
T1 sequence (Q09472 1066-1707): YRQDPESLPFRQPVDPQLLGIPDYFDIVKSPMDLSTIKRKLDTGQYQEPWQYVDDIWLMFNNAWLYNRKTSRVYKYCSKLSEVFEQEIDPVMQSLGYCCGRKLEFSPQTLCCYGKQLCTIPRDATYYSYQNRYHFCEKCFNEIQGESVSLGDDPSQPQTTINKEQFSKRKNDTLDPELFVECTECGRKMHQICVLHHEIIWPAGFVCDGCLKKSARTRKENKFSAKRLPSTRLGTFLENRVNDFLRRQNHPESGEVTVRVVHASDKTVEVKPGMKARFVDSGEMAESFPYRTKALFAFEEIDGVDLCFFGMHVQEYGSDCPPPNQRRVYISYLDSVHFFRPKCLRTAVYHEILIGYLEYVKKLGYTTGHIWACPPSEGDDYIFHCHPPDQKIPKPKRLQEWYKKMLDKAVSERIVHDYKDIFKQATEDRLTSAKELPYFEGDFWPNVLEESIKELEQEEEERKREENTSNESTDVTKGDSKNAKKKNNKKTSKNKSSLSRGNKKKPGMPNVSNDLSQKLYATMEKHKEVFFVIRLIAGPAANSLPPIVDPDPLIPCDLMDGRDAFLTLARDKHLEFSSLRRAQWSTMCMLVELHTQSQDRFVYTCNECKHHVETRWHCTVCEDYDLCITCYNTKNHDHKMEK

[2] = target: T1, histone acetyltransferase p300 (KAT3B); assay: biochemical

Row | IC50 [1] | IC50 [2] | Compound
1 | > 2000 nM |  | CCCCC[C@H](O)/C=C/[C@H]1C(=O)C=C[C@@H]1C/C=C\CCCC(=O)O [PGJ2]
2 |  | ~750 nM | CCCCC[C@H](O)C/C=C1/C(=O)C=C[C@@H]1C/C=C\CCCC(=O)O [Δ^12-PGJ2]
